Data from patent publication US4176126A, “Novel corticoids” (Schering Aktiengesellschaft, priority 1976, dated 1979).
Read-outs that look alike come from different tables or passages of the source.

What was measured:
[1] = system: skin (stratum corneum stripped, hyperemia); assay: vasoconstriction test (topical ointment on stripped skin, skin color value); type: in vivo, human volunteers; settings: concentration 0.00001%, untreated skin = 100, stripped skin = 0
Protocol: The local anti-inflammatory activity of the corticoids can be determined by means of the conventional vasoconstriction test.
On the backs of persons volunteering for the experiment, the stratum corneum was split up by the application and removal of an adhesive strip having a width of 2 cm. applied twenty times at the same spot, thus producing a pronounced hyperemia. Within the stripped area, 50 mg of an ointment preparation were applied to each one of a number of marked zones of a size of 4 cm^2. The ointment base without active ingredient served as the blank value. The color value of the untreated skin was set at 100 while that of the stripped skin was set at 0. The skin color value under vasoconstriction was correspondingly evaluated between 0 and 100.

paw edema = assay: adjuvant-edema test (oral, Mycobacterium butyricum paw edema); type: in vivo, SPF rats; settings: Rattus norvegicus, read-out: Adjuvant Edema Test ED50
Protocol: Furthermore, the systemic activity was determined with the aid of the adjuvant-edema test as follows:
SPF rats weighing 130-150 g were injected in the right hind paw with 0.1 ml of a 0.5% Mycobacterium butyricum suspension (obtainable from the U.S. company, Difco), in order to induce a center of inflammation. Prior to injection, the paw volume of the rats was measured. Twenty four hours after injection, the paw volume was measured once again to determine the extent of the edema. Thereafter, varying amounts of the test compound, was administered orally to the rats. After another 24 hours, the paw volume was again determined.
The control animals were treated in the same way but without any test compound.
From the thus-obtained paw volumes, the amount of test compound which was required to achieve a 50% reduction the paw edema was conventionally determined. Difluocotolone 21-valerate was also utilized in these tests as the comparison compound.

thymus = assay: thymolysis test (oral, adrenalectomized rats, thymus weight); type: in vivo, SPF rats; settings: Rattus norvegicus, 72 h, read-out: Thymolysis ED50
Protocol: The systemic activity of the compounds of this invention was determined as follows with the aid of the well-known thymolysis test:
SPF [specific-pathogen free] rats weighing 70- 110 g were adrenalectomized under ether narcosis. Six animals, respectively, formed each test group and received orally over a period of three days a defined amount of the test compound. On the fourth day, the animals were sacrificed and the weight of their thymus determined. The control animals were treated in the same way, but received a benzyl benzoate-castor -castor oil mixture without the test compound. From the thus-measured thymus weights, the amount of test compound at which a 50% thymolysis was observed was conventionally determined.

[2] = oral, 50% reduction of paw edema, systemic activity
[3] = oral, three days, 50% thymolysis, adrenalectomized rats, systemic activity

Q: How did the “Vasoconstriction after 4 Hours” value [1] turn out when `CCCCC(=O)OCC(=O)[C@H]1[C@H](C)C[C@H]2[C@@H]3C[C@H](F)C4=CC(=O)C=C[C@]4(C)[C@@]3(F)[C@@H](O)C[C@@]21C` [I, 6α, 9α-difluoro-11β-hydroxy-16α-methyl-21-valeryloxy-1,4-pregnadiene-3,20-dione, reference compound] was run?
A: 33%

Q: What about the “Vasoconstriction after 8 Hours” value [1] of the same compound?
A: 36%

Q: And the ED50 (paw edema; po)?
A: 0.3 mg/kg

Q: And the ED50 (thymus; po)?
A: 0.03 mg/kg

Q: Which results are given for `CC(C)(C)C(=O)OCC(=O)[C@@]1(OC(=O)c2ccccc2)CC[C@H]2C3=C([C@@H](O)C[C@@]21C)[C@@]1(C)C=CC(=O)C=C1CC3` [II, 17α-Benzoyloxy-11β-hydroxy-21-trimethylacetoxy-1,4,8(9)-pregnatriene-3,20-dione]?
A: Vasoconstriction after 4 Hours [1]: 30%; Vasoconstriction after 8 Hours [1]: 33%; ED50 (paw edema; [2]): 10 mg/kg; ED50 (thymus; [3]): 5.5 mg/kg

Q: Which results are given for `CC(=O)O[C@]1(C(=O)CCl)CC[C@H]2C3=C([C@@H](O)C[C@@]21C)[C@@]1(C)C=CC(=O)C=C1CC3` [III, 17α-Acetoxy-21-chloro-11β-hydroxy-1,4,8(9)-pregnatriene-3,20-dione]?
A: Vasoconstriction after 4 Hours [1]: 42%; Vasoconstriction after 8 Hours [1]: 42%; ED50 (paw edema; [2]): 3.6 mg/kg; ED50 (thymus; [3]): 3.6 mg/kg

Q: `CCC(=O)O[C@]1(C(=O)CCl)CC[C@H]2C3=C([C@@H](O)C[C@@]21C)[C@@]1(C)C=CC(=O)C=C1CC3` [IV, 21-Chloro-11β-hydroxy-17α-propionyloxy-1,4,8(9)-pregnatriene-3,20-dione] was tested. Which “Vasoconstriction after 4 Hours” value [1] did it give?
A: 47%

Q: And the “Vasoconstriction after 8 Hours” value [1]?
A: 45%

Q: And the ED50 (paw edema; [2])?
A: 2 mg/kg

Q: And the ED50 (thymus; [3])?
A: 2 mg/kg

Q: For `C[C@]12C=CC(=O)C=C1CCC1=C2[C@@H](O)C[C@@]2(C)[C@H]1CC[C@]2(OC(=O)c1ccccc1)C(=O)CCl` [V, 17α-Benzoyloxy-21-chloro-11β-hydroxy-1,4,8(9)-pregnatriene-3,20-dione], which “Vasoconstriction after 4 Hours” value [1] is on record?
A: 52%

Q: What about the “Vasoconstriction after 8 Hours” value [1] of the same compound?
A: 64%

Q: And the ED50 (paw edema; [2])?
A: 1 mg/kg

Q: And the ED50 (thymus; [3])?
A: 1 mg/kg
